Converted amounts (≈) assume the structure as drawn. “Also recorded” adds a separate entry of the source. Read-outs that look alike come from different tables or passages of the source.
Key:
Type in all cases: cell-based
[1] = tested on: Streptococcus Suis Type 2 21-018358-002; test: MIC assay; settings: for MIC50 / MIC90: Streptococcus suis
Protocol: (§1) The exact weighed amount was noted and the volume of solvent to reach a 80 mM dilution calculated. Half of the volume was added first, by adding Tween 80 and let stand for 5 minutes. In a second step, the other half of the volume DMSO was added and resuspended to help the dilution process. The closed tube was inverted 5-10 times and then vortexed very thoroughly for at least 30 seconds. If after this procedure crystals were still visible, the tube was placed in a shaker at 37° C. at 150 rpm for at least 30 minutes (it is indicated if the dissolution period was longer than 2 h). […] In case of Bis(4-Chlorophenyl) thiosulfonate, a lower concentrated stock solution of 2 mM needed to be prepared. For that, the required amount of compound was weighed in and 2% v/v Tween80 and 2% v/v DMSO of the end volume of the stock solution was added to the substance. This mix was heated in a water bath set to 40° C. and occasionally shaken. When the whole amount of the substance reached dissolution, the volume was filled up with growth medium until the end volume. This 2 mM stock solution of Bis(4-Chlorophenyl) thiosulfonate was used in the MIC plate and diluted two-fold, resulting in a testing range of Bis(4-Chlorophenyl) thiosulfonate from 1 mM to 0.002 mM.
(§2) The microorganisms as indicated in Table 4 were used to inoculate a tryptic soy agar (TSA) plate and incubated overnight at 37° C. After incubation 3-5 well-isolated colonies with the same morphology were selected from the TSA plate and resuspended in 2 mL 0.9% saline solution with 3-6 glass beads and vortexed. The optical density at 600 nm (OD600) of the bacterial suspension was measured with a spectrophotometer (Evolution™ 201/220 UV-Visible Spectrophotometer, Thermo Fisher Scientific) and diluted to an OD600 of 0.0008, which resembles 10^6 CFU/mL.
(§3) The MIC assay was performed in a flat-bottom 96-microtiter plate. 50 μL of MHB-II was added into columns 2-11, and 100 μL to column 12 for sterility control. 100 μL of the 8 mM test compound solution (method 1) was added to column 1. A two-fold dilution series of the solution in MHB-II was achieved by resuspending 50 μL of the 8 mM solution from column 1 to column 2. This step was repeated until column 10. The respective concentration of Tween 80 and DMSO in column 1 was 2.5%, which is two-fold diluted throughout the plate. 50 μL of the bacterial suspension was added to column 1-11. The microtiter plates were sealed with adhesive polyethylene film for sealing microplates (Diversified Biotech) and incubated for 24 h at 37° C. After incubation the OD was measured at 600 nm with the Varioskan (Thermo Fisher Scientific). The minimal concentration which causes reduction of final OD600 of the bacterial culture by 50% (MIC50) and by 90% (MIC90) was calculated after normalization of the obtained OD values to the growth control in column 11. This assay was repeated three times in three independent experiments.
(§4) Hereafter, the stock solutions of the compounds were used in three repetitions in a minimal inhibitory concentration (MIC) assay at a 2-fold dilution range with various bacteria from the gram-positive and gram-negative group and a yeast, Candida albicans. The concentrations that show only less than 10% growth after 24 h were considered the MIC90-values, whereas the concentrations that show 50% growth after 24 h when compared to the bacterial growth control were considered the MIC50-values. Escherichia coli and Staphylococcus aureus were used as representatives for a gram-negative bacteria and gram-positive bacteria, respectively. Furthermore, the yeast C. albicans was also tested.
(§5) In an Eppendorf tube between 10-20 mg of the test compound was weighed. Hereafter, the required amount of Tween 80 was added, followed by the amount DMSO. After vigorous shaking, the dissolved and transparent dilutions were diluted 10 times with Mueller Hinton Broth (MHB) for the MIC assay. […]

[2] = tested on: Klebsiella pneumoniae ATCC 13883; test: MIC assay; settings: for MIC50 / MIC90: Klebsiella pneumoniae, ATCC13883; for MIC50 / MIC90 / MIC50 Klebsiella pneumoniae / MIC90 Klebsiella pneumoniae: Example 2a, n = 3, ATCC 13883
Protocol: as §1, §2, §3, §4, §5

Caco-2 cell line = test: MTT cytotoxicity test; settings: 24 h, 7.8 μM to 1 mM, emulsified with Tween-80/DMSO
Protocol: Scope. As standard tests cytotoxicity is measured on Caco-2 and HepG2 cell lines. Cytotoxicity of mentioned cell lines was determined by measuring the amount of converted MTT (3-(4,5-dimethylthiazol-2-yl)-2,5-diphenyltetrazolium bromide) by a mitochondrial dehydrogenase after exposure of various concentrations of the antimicrobial compounds. In living cells the dehydrogenase converts the soluble MTT into water insoluble purple formazan crystals that can not pass the cell membrane. The higher the metabolic activity of the cell, the more purple crystals are formed, the lower the cytotoxicity of the antimicrobial compound. Experimental design. The Caco-2 cell line as colorectal adenocarcinoma cells and HepG2 (derived from human liver) were used for the current experiments and were obtained from the ATCC. The intestinal Caco-2 cell line was cultured in 75-cm^2 culture flasks. Minimum Essential Medium (MEM) (Catalog Number(s) 31095029, ThermoFischer Scientific), supplemented with 10% (v/v) inactivated fetal calf serum (FCS) (Gibco), 1% (v/v) nonessential amino acids (Gibco), 1% sodium pyruvate (Gibco) and penicillin (100 U/ml)/streptomycin (100 μg/ml.) was utilized as medium for the growing cells. The cells were preserved in an incubator to provide them with the optimum moisture and temperature (humidified atmosphere of 95% air and 5% CO2 at 37° C. for 72 hours). The Caco-2 cells were seeded in flat bottom 96-well plates for performing the experiments. The cells were grown on flat bottom 96-well plates to the appropriate density to run the experiments. The cells were exposed to increasing concentrations of emulsified test compound (8 concentration, ranging from 7.8 μM to 1 mM) in standard culture medium (Catalogue 31331028, ThemoFischer Scientific) for each cell line. It should be noted that all the experiments were conducted in FBS (Catalog A3840101, ThermoFischer Scientific) and antibiotic free medium. The concentration of Tween-80 and DMSO that is present in the assay to emulsify the antimicrobial compound was in the range from 0,007% to 1%. The cells were incubated for 24 h with emulsified test compound and the assay was performed based on the standard protocol. By the end of the experiment the medium (cell supernatants) was removed and the lysis buffer (0.04 M hydrochloric acid, in propan-2-ol) was added to each well to solubilize the purple formazan crystals. As the final step, the absorbance was recorded by a multi-well reader at 595 nm. […] The results from all experiments were expressed as mean #standard error of the mean (SEM) conducted in triplicate (three wells/condition) of three independent experiments. Differences between results were statistically evaluated using One-way ANOVA with Bonferroni post-hoc test.

[3] = tested on: Micrococcus luteus ATCC 4698; test: MIC assay; settings: Example 2a, n = 3, ATCC 4698; for MIC50 / MIC90: Micrococcus luteus, ATCC4698
Protocol: as §1, §2, §3

[4] = Example 2a, n = 3, 21-018358-002
[5] = Example 2a, n = 3, 21-018358-002, read-out: MIC90 Streptococcus Suis Type 2 (+)

Row | SMILES | MIC50 [1, 4] | MIC90 [1, 5] | MIC90 ([1]; Example 2b, FIG. 1, no MIC90 detected in the tested range, read-out: Average MIC90 S. suis (Ss)) | MIC50 [2] | MIC90 [2] | cytotoxic effect on Caco-2 cells (MTT) (Caco-2 cell line) | MIC50 [3] | MIC90 [3] | MIC50 Streptococcus Suis Type 2 (+) [1, 4] | MIC90 Streptococcus Suis Type 2 (+) [1, 4] | MIC50 Klebsiella pneumoniae [2] | MIC90 Klebsiella pneumoniae [2] | MIC50 Micrococcus luteus (+) [3] | MIC90 Micrococcus luteus (+) [3] | Average MIC90 K. pneumoniae (Kp) ([2]; Example 2b, FIG. 1, no MIC90 detected in the tested range)
1 | Clc1ccc(SSc2ccc(Cl)cc2)cc1 [Bis (4-chlorophenyl) disulfide, Bis(4-chlorophenyl) disulfide] | 60 µM (≈ 17.2 µg/mL) | 50 µM (≈ 14.4 µg/mL) | > 1000 µM | > 4000 µM | > 4000 µM | cytotoxic effects | 50 µM (≈ 14.4 µg/mL) | 250 µM (≈ 71.8 µg/mL) |  |  |  |  |  |  | 
2 | O=S(=O)(Sc1ccc(Cl)cc1)c1ccc(Cl)cc1 [Bis (4-chlorophenyl) thiosulfonate, Bis(4-chlorophenyl) thiosulfonate] |  |  |  |  |  | cytotoxic effects |  |  | 130 µM | 370 µM | >1000 µM | >1000 µM | 210 µM | 750 µM | 
3 | Fc1ccc(SSc2ccc(F)cc2)cc1 [Bis (4-fluorophenyl) disulfide, Bis(4-fluorophenyl) disulfide] | 380 µM (≈ 96.6 µg/mL) | 1670 µM (≈ 425 µg/mL) |  | > 4000 µM | > 4000 µM | cytotoxic effects | 750 µM (≈ 191 µg/mL) | 2000 µM (≈ 509 µg/mL) |  |  |  |  |  |  | above 4000 μM
4 | [O-][S+](Sc1ccc(F)cc1)c1ccc(F)cc1 (stereo not drawn) [Bis (4-fluorophenyl) thiosulfinate, Bis(4-fluorophenyl) thiosulfinate] |  |  |  |  |  |  |  |  | 380 µM (≈ 103 µg/mL) | 830 µM (≈ 224 µg/mL) | 2500 µM (≈ 676 µg/mL) | >4000 µM | 2000 µM (≈ 541 µg/mL) | 3330 µM (≈ 900 µg/mL) | 
5 | O=S(=O)(Sc1ccc(F)cc1)c1ccc(F)cc1 [Bis (4-fluorophenyl) thiosulfonate, Bis(4-fluorophenyl) thiosulfonate] |  |  |  |  |  |  |  |  | 750 µM | 880 µM | >4000 µM | >4000 µM | 1500 µM | 2000 µM | 
6 | CC(C)SS(=O)(=O)C(C)C [Di-isopropyl thiosulfonate] |  |  |  |  |  | cytotoxic effects; also recorded: cytotoxicity is lowest |  |  |  |  |  |  |  |  | 

Source: patent US20260083126A1, “ANTIMICROBIAL COMPOSITIONS” (AHV International B.V., priority 2022, published 2026)
